# Data reported in PMC4977194 (Bioorganic & medicinal chemistry letters, 2016).
# What was measured:
# VMAT2 = VMAT2 (Rattus norvegicus, UniProt Q01827); assay: Vesicular [3H]DA uptake assay; assay type: biochemical; conditions: for further improvement in inhibitory potency at VMAT2 on hydrolysis of the 4-acetoxy groups: relative to acetoxy precursors 4 and 5
# SERT = SERT (Rattus norvegicus, UniProt P31652); assay: Synaptosomal [3H]5-HT uptake assay; assay type: biochemical
# Sequence of SERT (P31652 whole entry): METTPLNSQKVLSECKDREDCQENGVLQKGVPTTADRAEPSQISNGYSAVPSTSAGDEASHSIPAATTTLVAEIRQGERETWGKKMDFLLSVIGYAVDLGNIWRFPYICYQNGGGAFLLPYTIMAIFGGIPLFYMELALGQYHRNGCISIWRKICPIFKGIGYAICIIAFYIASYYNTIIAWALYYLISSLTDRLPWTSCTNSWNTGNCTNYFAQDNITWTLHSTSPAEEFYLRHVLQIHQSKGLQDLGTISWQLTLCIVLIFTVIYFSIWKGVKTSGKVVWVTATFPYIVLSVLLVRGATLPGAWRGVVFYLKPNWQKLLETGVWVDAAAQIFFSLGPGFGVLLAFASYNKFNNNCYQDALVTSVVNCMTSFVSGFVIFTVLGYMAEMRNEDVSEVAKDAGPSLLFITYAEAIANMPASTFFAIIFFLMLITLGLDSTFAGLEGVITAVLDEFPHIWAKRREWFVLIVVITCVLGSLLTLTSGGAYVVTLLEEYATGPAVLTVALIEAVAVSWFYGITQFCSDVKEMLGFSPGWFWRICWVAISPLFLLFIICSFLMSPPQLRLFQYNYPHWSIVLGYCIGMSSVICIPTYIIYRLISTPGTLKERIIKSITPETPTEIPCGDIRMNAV
# Sequence of VMAT2 (Q01827 whole entry): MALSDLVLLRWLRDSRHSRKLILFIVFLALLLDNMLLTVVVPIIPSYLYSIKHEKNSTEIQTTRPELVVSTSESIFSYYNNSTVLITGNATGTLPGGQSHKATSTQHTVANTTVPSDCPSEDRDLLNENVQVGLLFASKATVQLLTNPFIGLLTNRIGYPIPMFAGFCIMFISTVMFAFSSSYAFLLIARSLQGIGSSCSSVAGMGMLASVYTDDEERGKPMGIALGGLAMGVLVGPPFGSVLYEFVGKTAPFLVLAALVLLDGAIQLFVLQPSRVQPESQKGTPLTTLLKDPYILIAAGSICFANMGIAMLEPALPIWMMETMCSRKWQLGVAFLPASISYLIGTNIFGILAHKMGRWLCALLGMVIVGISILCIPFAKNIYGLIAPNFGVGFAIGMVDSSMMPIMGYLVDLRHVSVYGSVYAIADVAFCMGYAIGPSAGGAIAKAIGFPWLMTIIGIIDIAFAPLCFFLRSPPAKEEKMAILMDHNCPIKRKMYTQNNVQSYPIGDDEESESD
structure (smiles),measurement,setting,value
CC(=O)Oc1ccc(CC[C@H]2CCC[C@@H](CCc3ccc(OC(C)=O)cc3)N2C)cc1.Cl [Compound 5],improved inhibitory potency at VMAT2 relative to 4,VMAT2; N-methylation of 4,3 fold
CN1[C@@H](CCc2ccc(O)cc2)CCC[C@H]1CCc1ccc(O)cc1.Cl [Compound 6],further improvement in inhibitory potency at VMAT2 on hydrolysis of the 4-acetoxy groups,VMAT2,about 2 fold
Cl.Oc1ccc(CC[C@H]2CCC[C@@H](CCc3ccc(O)cc3)N2)cc1 [Compound 7],further improvement in inhibitory potency at VMAT2 on hydrolysis of the 4-acetoxy groups,VMAT2,about 2 fold
Cl.FCCOc1ccc(CC[C@H]2CCC[C@@H](CCc3ccc(OCCF)cc3)N2)cc1 [Compound 13],greater affinity for SERT than lobelane,SERT,6 fold
Cl.OC[C@H](O)CN1[C@@H](CCc2ccc(O)cc2)CCC[C@H]1CCc1ccc(OCCF)cc1 [Compound 16],greater affinity for SERT than GZ-793A,SERT,7 fold
Cl.OC[C@H](O)CN1[C@@H](CCc2ccc(OCCF)cc2)CCC[C@H]1CCc1ccc(OCCF)cc1 [Compound 17],decrease in affinity for SERT when compared to GZ-793A,SERT,4 fold
